# In patent US20250129067A1 (Progentos Therapeutics, Inc., priority 2021, published 2025):
# Read-outs that look alike come from different tables or passages of the source.
# Experiments:
# [1] = test system: GPR17+ cells (newly differentiated oligodendrocytes); settings: mouse
# PDGFRα = PDGFRα (Homo sapiens (Human), UniProt P16234); assay: PDGFRα kinase enzyme assay (Promega PDGFRα Kinase Enzyme System, ADP-Glo); assay type: biochemical; settings: 11-point dose response, 10,000 nM to 0.169 nM, 150 uM ATP, BLQ = below limit of quantitation
# Procedure, shortened: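 Read-out was ADP-Glo: remaining ATP depleted, ADP converted to luminescence and compared with a standard curve.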
# [2] = test system: Oligodendrocyte progenitor cells (OPCs)
# [3] = test system: Oligodendrocyte progenitor cells (OPCs); remark: listed apart in the source
# Procedure: (§1) Cortices from postnatal day (P) 1-3 rats were dissected and collected into ice cold Hank's Balanced Salt Solution (HBSS). […] Briefly, the cortical cell suspension was centrifuged and washed with buffer (0.5% BSA in PBS) and labeled with Anti-A2B5 MicroBeads (10 μL beads per 1×10^7 cells) for 15 minutes at 4° C. Following the incubation, cells were washed once with BSA buffer to remove unlabeled beads. A2B^5 positive cells were eluted on the column using the AutoMACS® (Miltenyi, as per manufacturer's protocol using “possel-s” program). Eluted cells were further washed twice with OPC growth media. Cell count was performed using Countess III cell counter (ThermoFisher; AMQAX2000) and cells were plated.
# (§2) A2B5+ OPCs were plated in poly-d-lysine (PDL) coated T75 flask at a density of ˜3 million cells per flask. […] TrypLE was normalized by adding 10 mL growth media and cells were centrifuged at 1400 rpm for 10 minutes. […] The plates were allowed to sit at room temperature for 15 minutes to ensure proper dispersion of cells in a well. The plates were then transferred to the incubator (37° C.; 5% CO2).
# (§3) Cells were then incubated for 72 hours at 37° C., 5% CO2 before immunostaining for MBP marker expression.
# (§4) Following 72 hours of treatment, cells were fixed with 4% paraformaldehyde for 15 minutes then washed three times in DPBS. Prior to staining, cells were blocked for 15 minutes in 10% normal goat serum containing 1% BSA and 0.1% Triton X-100 in DPBS. Primary antibody (MBP @ 1:2000; Abcam AB7349) was applied to cells overnight at 4° C. in incubation solution containing 1% normal goat serum, 1% BSA, and 0.1% Triton X-100 in DPBS.
# (§5) The number of differentiated MBP+ cells was normalized to the total nuclei count and percent differentiated MBP+ cells were reported.
# [4] = test system: newly generated, GPR17+, oligodendrocytes; assay: in vivo GPR17 assay / in vivo OPC differentiation assay (Examples 242, 245); settings: healthy mice, single oral dose of 0.1, 0.33, 1 or 3.3 mg/kg, versus vehicle, n=8 mice per group
# Procedure: FIGS. 2A and 2B provide representative immunohistochemistry images comparing the in vivo generation of new oligodendrocytes in the brains of mice treated with one of the following: (i) vehicle control (FIG. 2A), or (ii) PDGFRα inhibitor (Compound 6) (PO 5 mg/kg; single dose) (FIG. 2B). The newly generated oligodendrocytes are identified based on upregulation of GPR 17 expression.
# Healthy mice received a single oral dose of 0.1 (“2”), 0.33 (“3”), 1 (“4”), or 3.3 (“5”) mg/kg of PDGFRα inhibitor (Compound 26). Control mice received a vehicle control (“1”). The number of newly generated, GPR17+, oligodendrocytes/mm^2 was quantitated via automated image analysis from sections spanning the anterio-posterior axis of the brain. […]
# As described elsewhere in the present disclosure, some exemplary PDGFRα inhibitors of the present disclosure are capable of have greater therapeutic effect than inhibitors known in the art, e.g., when an inhibitor known in the art and an exemplary inhibitor provided herein are assayed against a vehicle control. […] For example, in some aspects, a PDGFRα inhibitor of the present disclosure can achieve greater than 2-fold increase in GPR17 expression compared to a vehicle control at a dose of less than 50 mg/kg, as measured using an in vivo GPR17 assay (such as that described in Example 242). […]
# [5] = test system: GPR17+ cells (newly differentiated oligodendrocytes); assay: In vivo OPC differentiation, GPR17+ cells in brain; settings: Mus musculus, po, 24 h, read-out: GPR17 Fold Induction (Over Vehicle)
# [6] = test system: Oligodendrocyte progenitor cells (OPCs); assay: In vitro OPC differentiation assay, MBP expression (immunocytochemistry); settings: 72 hours of treatment; fold change over vehicle
# Procedure: as §1, §2, §3, §4, §5
# [7] = test system: Oligodendrocyte progenitor cells (OPCs); assay: In vitro OPC differentiation assay, GPR17 expression (immunocytochemistry); settings: 72 hours, fold change over vehicle
# PDGFRα, sequence (P16234 24-1089): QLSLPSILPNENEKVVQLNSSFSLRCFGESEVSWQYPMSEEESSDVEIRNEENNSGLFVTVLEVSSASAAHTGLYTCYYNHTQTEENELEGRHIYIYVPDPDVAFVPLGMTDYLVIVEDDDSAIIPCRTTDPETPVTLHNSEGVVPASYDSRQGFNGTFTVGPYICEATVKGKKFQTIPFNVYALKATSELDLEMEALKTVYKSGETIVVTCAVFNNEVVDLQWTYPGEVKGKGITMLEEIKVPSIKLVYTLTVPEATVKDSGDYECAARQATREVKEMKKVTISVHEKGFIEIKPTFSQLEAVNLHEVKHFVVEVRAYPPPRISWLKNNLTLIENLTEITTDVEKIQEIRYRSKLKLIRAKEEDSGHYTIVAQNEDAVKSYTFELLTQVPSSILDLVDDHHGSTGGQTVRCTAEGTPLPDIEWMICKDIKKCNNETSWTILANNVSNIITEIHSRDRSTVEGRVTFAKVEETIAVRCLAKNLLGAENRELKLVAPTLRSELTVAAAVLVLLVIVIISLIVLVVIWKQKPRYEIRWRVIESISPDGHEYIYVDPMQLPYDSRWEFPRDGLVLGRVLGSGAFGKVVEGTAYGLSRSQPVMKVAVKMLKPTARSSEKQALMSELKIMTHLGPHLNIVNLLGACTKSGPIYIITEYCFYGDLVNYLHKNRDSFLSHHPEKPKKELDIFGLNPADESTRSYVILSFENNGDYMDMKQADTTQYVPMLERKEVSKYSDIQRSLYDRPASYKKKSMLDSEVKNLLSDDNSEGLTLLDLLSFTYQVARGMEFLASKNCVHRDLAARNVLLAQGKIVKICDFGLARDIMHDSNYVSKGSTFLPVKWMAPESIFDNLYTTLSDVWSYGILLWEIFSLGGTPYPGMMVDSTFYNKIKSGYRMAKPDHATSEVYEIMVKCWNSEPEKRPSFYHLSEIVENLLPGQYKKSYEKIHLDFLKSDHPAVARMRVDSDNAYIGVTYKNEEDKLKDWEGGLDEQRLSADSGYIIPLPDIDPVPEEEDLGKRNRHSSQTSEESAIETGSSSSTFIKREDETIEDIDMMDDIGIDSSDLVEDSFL
molecule,measurement,setting,value
CN(C)CCC=C1c2ccccc2COc2ccccc21 [Doxepin],"In vivo GPR17+ cells, GPR17 Fold Induction (Over Vehicle)",[1],1.36
"3-[4-(5-benzylpyrimidin-2-yl)piperazin-1-yl]-6-(1-methyl-1H-pyrazol-3-yl)pyrazolo[1,5-a]pyridine [Compound 38]",IC50,"PDGFRα; read-out: IC50 Values on PDGFRα Kinase Inhibition, IC50",4.75 µM
same,GPR17 Fold Induction (Over Vehicle; 3 μM),[2],7.04
same,GPR17 Fold Induction (Over Vehicle; 5 μM),[2],6.02
same,MBP Fold Induction (Over vehicle),[3],1.41
"Cn1cc(-c2ccc3c(N4CCN(c5ncc(C(O)c6ccc(F)cc6)cn5)CC4)cnn3c2)cn1 (centres unmarked) [Compound 26, (4-fluorophenyl)(2-{4-[6-(1-methyl-1H-pyrazol-4-yl)pyrazolo[1,5-a]pyridin-3-yl]piperazin-1-yl}pyrimidin-5-yl)methanol]","number of newly generated, GPR17+, oligodendrocytes/mm^2",[4],dose responsive induction
same,"IC50 Values on PDGFRα Kinase Inhibition, IC50 (nM)",PDGFRα,BLQ
same,fold induction at 3.3 mg/kg,[5],12.1
same,MBP Fold Induction (Over vehicle),[6],5.23
same,GPR17 Fold Induction (Over Vehicle; 3 μM),"[7]; 3 μM (10× concentration, final 0.3 μM)",13.87
same,GPR17 Fold Induction (Over Vehicle; 5 μM),"[7]; 5 μM (10× concentration, final 0.5 μM)",4.97
